{
  "source": "paper PMC5640650",
  "about": "“NatD promotes lung cancer progression by preventing histone H4 serine phosphorylation to activate Slug expression” (Nature Communications, 2017)",
  "key": {"LLC cells [1]": {"test_system": "LLC cells", "assay": "Transwell migration and invasion assay, LLC cells", "format": "cell-based, murine", "settings": "LLC cells in vitro, vs Scr"}, "[2]": {"test_system": "promoters of Zeb1, Zeb2, Twist1, and Snail", "assay": "ChIP assay on the promoters of Zeb1, Zeb2, Twist1, and Snail, H1299 cells", "format": "cell-based, human", "settings": "vs Scr", "method": "ChIP assays were performed with H1299 cells in accordance with standard protocols. Normal rabbit IgG served as the control. ChIP samples were analyzed by quantitative real-time PCR using the FastStart Universal SYBR Green Master (Roche). A standard curve was prepared for each set of primers using serial titration of the input DNA. The percentage of ChIP DNA was calculated relative to the input DNA from primer-specific standard curves using the Rotor-Gene 6000 Series Software 1.7. The primer sequences for ChIP are listed in Supplementary Table 4. Antibodies used were: H4S1ph (Abcam; ab14723), H4K5ac (Millipore; CS204381), H4R3me2a (Active Motif; 39705), H4R3me2s (Abcam; ab5823), CK2α (Abcam; ab70774), H3K4me3 (Abcam; ab8580), and H3K27me3 (Abcam; ab6002).\nSupplementary Figure 7. Knockdown of NatD has no effect on enrichment of H4S1ph on some EMT-related gene promoters. (a-d) ChIP analysis of the enrichment of Nt-ac-H4, H4S1ph, H3K4me3 and H3K27me3 on the promoter of Zeb1(a), Zeb2(b), Twist1(c), and Snail (d) in Scr and NatD-KD H1299 cells. IgG served as a negative control. Results are shown as mean ± s.d. of three independent experiments; two-tailed Student’s t-test, **P<0.01 or *P<0.05 compared to Scr […]\n(1 picture or pasted object on this page, not shown here)"}, "LLC cells [3]": {"test_system": "LLC cells", "assay": "Tail vein injection in C57BL/6 mice, LLC cells", "format": "in vivo, murine", "settings": "30 days, n = 5, vs Scr", "method": "All animal care and handling procedures were performed in accordance with the National Institutes of Health Guide for the Care and Use of Laboratory Animals, and were approved by the Institutional Review Board of Nanjing University (Nanjing, China). Female SCID mice and C57BL/6 mice (6–8 week old) were purchased from the Model Animal Research Center of Nanjing University (Nanjing, China), and were maintained under specific pathogen-free conditions at Nanjing University. The sample size was chosen with adequate power on the basis of the literature and our previous experience[46] and for each experiment it is indicated in the figure legend. […] Lung nodules and progression were monitored and quantified using the bioluminescence system (Caliper IVIS Lumina XR) or by counting under a dissecting microscope. […] Mice were killed at day 28 or day 30 to collect lungs, and lung nodules in serial sections were quantified microscopically. […] Lung nodules and progression were monitored and quantified using the bioluminescence system (Caliper IVIS Lumina XR). Mice were killed at day 14 or day 21 to collect lungs, and lung nodules in serial sections were quantified microscopically. […]\nRepresentative blots from three independent experiments. […] (bottom) Cell migration and invasion expressed as a percentage of Scr control. […]"}},
  "data": [
    {"substance": "NatD-KD2: Human NatD shRNA KD2: 5′-GGTTGAATGTCTCCATTGA-3′, lentiviral (shRNA lentiviral)", "values": [
      {"measurement": "migratory and invasive capabilities", "setting": "LLC cells [1]", "value": "significantly decreased"},
      {"measurement": "enrichment of H4S1ph, H3K4me3, and H3K27me3 on Zeb1, Zeb2, Twist1, Snail promoters", "setting": "[2]", "value": "unchanged"},
      {"measurement": "enrichment of Nt-ac-H4 on Zeb1, Zeb2, Twist1, Snail promoters", "setting": "[2]", "value": "reduced"},
      {"measurement": "number of tumor nodules", "setting": "LLC cells [3]", "value": "significantly fewer tumor nodules"}
    ]}
  ]
}
